# Test results from patent US7807422B2, “Production of flavonoids by recombinant microorganisms” (The Research Foundation of State University of New York, priority 2004, dated 2010).
# Legend:
# [1] = system: S. cerevisiae strain INVSC1 carrying plasmid Ycc4c181; assay: Growth of recombinant yeast fed with phenylpropanoid acids; format: cell-based; conditions: preliminary data
# Experimental: Yeast Shake Flask Experiment. A single colony of strain INVSC1 carrying plasmid Ycc4c181 was inoculated into 15 ml of SC-Leu minimal medium containing 2% glucose and was left to grow overnight at 30° C. with shaking (preinoculum). The following day, 50 ml induction medium (SC-Leu medium containing 2% galactose) was seeded with medium-free preinoculum to a final absorbance at 600 nm (A600) of 0.4. Cells were then left to grow at 30° C. with vigorous shaking for 4 hours. At that time, 50 μl of a 0.25 M stock solution of substrate (cinnamic acid, p-coumaric acid, caffeic acid or ferulic acid) were added to the culture to a final concentration of 0.25 mM. The culture was left to grow at 30° C. for a total of 65 hours with horizontal shaking. During that time, the culture was supplemented with another 50 μl of substrate stock every 12 hours for a total of 4 times.
# Cinnamic acid was provided in a total of 5 increments to the culture. […] In all cases, after 65 hours of fermentation, only trace amounts of cinnamic acid were detected in the culture.
# Flavanone compounds were identified by comparison of the retention time and UV profile with those of authentic standards and literature data.
# E. coli BL21 Star = assay: Effect of phenylpropanoid acids on E. coli growth (growth curves); format: cell-based; conditions: 2 mM cinnamic acid, M9 minimal medium
# Experimental: Growth Curves. In order to investigate the effect of Phenylpropanoid acids on E. coli growth, E. coli BL21 Star was inoculated in 3 ml M9 liquid minimum medium and was left to grow at 37° C. overnight (preinoculum). The following day, 1 ml from the preinoculum was transferred to either 50 ml M9 minimal or Luria-Bertani (LB) rich liquid medium and p-coumaric acid, caffeic acid or cinnamic acid were added in the culture at different final concentrations (0 mM, 0.2 mM, 0.5 mM, 1 mM and 2 mM). Cell growth was monitored by measuring the absorbance at 600 nm (A600).
# Phenylpropanoid acids reduce E. coli growth. We tested the effect of both p-coumaric acid and cinnamic acid on E. coli growth by incubating BL21 Star in M9 minimum medium and LB rich medium in the presence of different concentration of these compounds (0 mM, 0.05 mM, 0.1 mM, 0.15 mM, 0.2 mM, 1 mM, and 2 mM). […] For example, in the case of p-coumaric acid in […], the growth rate dropped from 0.28 h^−1 (control, 0 mM) to 0.18 h^−1 (2 mM). Similarly, for cinnamic acid the growth rate dropped from 0.27 h^−1 (control, 0 mM) to 0.17 h^−1 (2 mM) in M9 minimal medium.
# [2] = system: flavanone biosynthesis in recombinant yeast strain INV-4G; assay: Eriodictyol production from caffeic acid by INV-4G in the presence of luteolin; format: cell-based, S. cerevisiae; conditions: varying luteolin concentrations (1, 3, 10 mg/L)
# From the text: Heterologous expression and fermentation. In order to assemble the two different flavone biosynthetic pathways, recombinant INVSc1 carrying plasmid Ycc4c181G was transformed with YC-FSI, YC-FSII or YC-FSII+CPR1 separately, yielding recombinant strains INV-4G+FSI, INV-4G+FSII, and INV-4G+FSII+CPR1. Yeast colonies harboring both plasmids were selected upon growth on SC agar plates lacking leucine and tryptophan (SC-Leu-Trp-). For flavone fermentation purposes, an individual recombinant yeast colony was grown overnight in 10-mL liquid SC-Leu-Trp-containing glucose at 30° C. with shaking. The following day, a portion of this culture was used to seed the main culture of SC-Leu-Trp-containing galactose and raffinose or MA-Leu-Trp-containing galactose and acetate to an Ab600 of 0.4. 0.5 mM of phenylpropanoid acid (cinnamic acid, p-coumaric acid, caffeic acid, ferulic acid) was then added to the main culture, and incubation was carried out at 30° C. with horizontal shaking for a maximum of 92 hours.
# The efficiency of eriodictyol production from caffeic acid by INV-4G in the presence of varying luteolin concentrations was also tested.
Compound,concentration in the medium resulting in significant cell growth arrest [1],growth rate (E. coli BL21 Star) [h⁻¹],regulation (feedback inhibition) of flavanone biosynthesis [2]
O=C(O)C=Cc1ccccc1 [cinnamic acid],above 0.5 mM,0.17,
O=c1cc(-c2ccc(O)c(O)c2)oc2cc(O)cc(O)c12 [luteolin],,,did not regulate
